{
  "source": "patent US20240240224A1",
  "about": "“FLUORESCENT D-TYPE AMINO ACID METABOLISM MARKER-BASED METHOD FOR DETECTING ANTIBACTERIAL DRUG SENSITIVITY TEST” (priority 2020, published 2024)",
  "conditions_in_all_cases": "unit assumed",
  "key": {"Ec ATCC 25922": {"test_system": "Ec ATCC 25922", "assay": "BMD susceptibility test", "assay_type": "cell-based, Escherichia coli"}, "E. faecalis ATCC29212": {"test_system": "E. faecalis ATCC29212", "assay": "FaAST (FDAA metabolic labeling method)", "assay_type": "cell-based, Enterococcus faecalis", "how_it_was_run": "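Bacteria at OD600=0.05 in CAMHB exposed to antibiotic concentration gradients with Cy5-DAA probe […], 2 h in the dark. Fluorescence read by flow cytometry after PBS dilution; MIC taken from the curve of fluorescence intensity versus antibiotic concentration.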"}, "[1]": {"test_system": "Acinetobacter baumannii ABA19", "assay": "VITEK drug sensitivity test", "assay_type": "cell-based"}, "[2]": {"test_system": "alveolar lavage fluid sample 0130, A. baumannii", "assay": "BMD susceptibility test of patient alveolar lavage fluid", "assay_type": "cell-based, Acinetobacter baumannii", "from_the_text": "(§1) The results of antimicrobial susceptibility test of alveolar lavage fluid of seven patients using FDAA and BMD methods are shown in the following table. The drug-resistant bacteria are shown in bold."}, "[3]": {"test_system": "alveolar lavage fluid sample 0206, A. baumannii", "assay": "BMD susceptibility test of patient alveolar lavage fluid", "assay_type": "cell-based, Acinetobacter baumannii", "from_the_text": "as §1"}, "[4]": {"test_system": "alveolar lavage fluid sample 0219, A. baumannii", "assay": "BMD susceptibility test of patient alveolar lavage fluid", "assay_type": "cell-based, Acinetobacter baumannii", "from_the_text": "as §1"}, "S. aureus Sa22 [5]": {"test_system": "S. aureus Sa22", "assay": "FaAST (FDAA metabolic labeling method)", "assay_type": "cell-based, Staphylococcus aureus", "procedure": "(§2) Take the colony to be tested that has been cultured overnight on the plate and fully mix it in normal saline to make a uniform bacterial solution. Dilute it into Cation-Adjusted Mueller Hinton Broth (CAMHB) culture medium to make a bacterial solution with OD600=0.05. • 2. Add 45 μl antibiotic solutions of different concentrations to 96-well plates (see Table 1 for antibiotic concentration gradient settings). • 3. Add 50 μl of the bacterial solution prepared in step 1 to the 96-well plate and mix well. • 4. Add 5 μl of 10 mM Cy5-DAA probe (final concentration 0.15 mM, see FIG. 1 for its structure) into each well, mix well, and cultivate in dark for 2 hours. • 5. Add 200 μl After PBS solution is diluted, the fluorescence intensity of each sample is detected by flow cytometry. The flow detection results are shown in FIG. 4-5, showing the curve of the change of antibiotic concentration gradient and fluorescence intensity. The MIC (minimum inhibitory concentration) can be obtained by referring to this curve.\n(§3) Bacteria with antibiotic resistance are shown in bold in the following table."}, "S. aureus Sa23 [6]": {"test_system": "S. aureus Sa23", "assay": "FaAST (FDAA metabolic labeling method)", "assay_type": "cell-based, Staphylococcus aureus", "procedure": "as §2, §3"}, "S. aureus ATCC29213": {"test_system": "S. aureus ATCC29213", "assay": "FaAST (FDAA metabolic labeling method)", "assay_type": "cell-based, Staphylococcus aureus", "procedure": "as §2, §3"}, "K. pneumoniae Kp9": {"test_system": "K. pneumoniae Kp9", "assay": "FaAST (FDAA metabolic labeling)", "assay_type": "cell-based, Klebsiella pneumoniae", "how_it_was_run": "(§4)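 Bacteria at OD600=0.05 in CAMHB mixed with antibiotic dilutions plus Cy5-DAA probe at 0.15 mM final, then incubated 2 h in the dark. Cell-wall labeling fluorescence measured by flow cytometry after PBS dilution.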"}, "K. pneumoniae Kp6": {"test_system": "K. pneumoniae Kp6", "assay": "FaAST (FDAA metabolic labeling)", "assay_type": "cell-based, Klebsiella pneumoniae", "how_it_was_run": "as §4"}, "Pa ATCC 27853": {"test_system": "Pa ATCC 27853", "assay": "BMD susceptibility test", "assay_type": "cell-based, Pseudomonas aeruginosa"}, "A. baumannii Ab19 [7]": {"test_system": "A. baumannii Ab19", "assay": "FaAST (FDAA metabolic labeling)", "assay_type": "cell-based, Acinetobacter baumannii", "how_it_was_run": "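Bacteria diluted to OD600=0.05 in CAMHB were exposed to an antibiotic concentration series with Cy5-DAA probe […] for 2 h in the dark. Per-sample fluorescence was read by flow cytometry after PBS dilution. MIC was taken from the antibiotic concentration–fluorescence curve.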"}, "[8]": {"test_system": "Acinetobacter baumannii ABA16", "assay": "VITEK drug sensitivity test", "assay_type": "cell-based"}, "E. faecium Ef28": {"test_system": "E. faecium Ef28", "assay": "FaAST (FDAA metabolic labeling method)", "assay_type": "cell-based, Enterococcus faecium", "procedure": "as §2, with “The flow detection results are shown in FIG. 4-5, showing the curve of the change of antibiotic concentration gradient and fluorescence intensity.” left out"}, "S. aureus Sa23 [9]": {"test_system": "S. aureus Sa23", "assay": "BMD susceptibility test", "assay_type": "cell-based, Staphylococcus aureus"}, "A. baumannii Ab19 [10]": {"test_system": "A. baumannii Ab19", "assay": "BMD susceptibility test", "assay_type": "cell-based, Acinetobacter baumannii"}, "P. aeruginosa Pa3": {"test_system": "P. aeruginosa Pa3", "assay": "BMD susceptibility test", "assay_type": "cell-based, Pseudomonas aeruginosa"}, "P. aeruginosa Pa2": {"test_system": "P. aeruginosa Pa2", "assay": "BMD susceptibility test", "assay_type": "cell-based, Pseudomonas aeruginosa"}, "S. aureus Sa22 [11]": {"test_system": "S. aureus Sa22", "assay": "BMD susceptibility test", "assay_type": "cell-based, Staphylococcus aureus"}, "E. coli Ec13": {"test_system": "E. coli Ec13", "assay": "FaAST (FDAA metabolic labeling)", "assay_type": "cell-based, Escherichia coli", "how_it_was_run": "as §4"}},
  "data": [
    {"smiles": "C[C@H]1COc2c(N3CCN(C)CC3)c(F)cc3c(=O)c(C(=O)O)cn1c23", "note": "[Levofloxacin, levofloxacin]", "values": [
      {"measurement": "BMD (MIC)", "setting": "Ec ATCC 25922", "result": "≤ 0.25", "unit": "µg/mL"},
      {"measurement": "FaAST (MIC)", "setting": "E. faecalis ATCC29212", "result": 1, "unit": "µg/mL"},
      {"measurement": "MIC, VITEK", "setting": "[1]", "result": "≤ 0.25", "unit": "µg/mL"},
      {"measurement": "BMD (MIC)", "setting": "[2]", "result": 64, "unit": "µg/mL"},
      {"measurement": "BMD (MIC)", "setting": "[3]", "result": 32, "unit": "µg/mL"},
      {"measurement": "BMD (MIC)", "setting": "[4]", "result": 32, "unit": "µg/mL"},
      {"measurement": "FaAST (MIC)", "setting": "S. aureus Sa22 [5]", "result": 32, "unit": "µg/mL"},
      {"measurement": "FaAST (MIC)", "setting": "S. aureus Sa23 [6]", "result": 1, "unit": "µg/mL"},
      {"measurement": "FaAST (MIC)", "setting": "S. aureus ATCC29213", "result": 0.5, "unit": "µg/mL"},
      {"measurement": "FaAST (MIC)", "setting": "K. pneumoniae Kp9", "result": 128, "unit": "µg/mL"},
      {"measurement": "FaAST (MIC)", "setting": "K. pneumoniae Kp6", "result": 0.5, "unit": "µg/mL"},
      {"measurement": "BMD (MIC)", "setting": "Pa ATCC 27853", "result": 0.5, "unit": "µg/mL"},
      {"measurement": "FaAST (MIC)", "setting": "A. baumannii Ab19 [7]", "result": 0.5, "unit": "µg/mL"},
      {"measurement": "MIC, VITEK", "setting": "[8]", "result": 16, "unit": "µg/mL"},
      {"measurement": "FaAST (MIC)", "setting": "E. faecium Ef28", "result": 64, "unit": "µg/mL"},
      {"measurement": "BMD (MIC)", "setting": "S. aureus Sa23 [9]", "result": 1, "unit": "µg/mL"},
      {"measurement": "BMD (MIC)", "setting": "A. baumannii Ab19 [10]", "result": "≤ 0.25", "unit": "µg/mL"},
      {"measurement": "BMD (MIC)", "setting": "P. aeruginosa Pa3", "result": 0.5, "unit": "µg/mL"},
      {"measurement": "BMD (MIC)", "setting": "P. aeruginosa Pa2", "result": 0.5, "unit": "µg/mL"},
      {"measurement": "BMD (MIC)", "setting": "S. aureus Sa22 [11]", "result": 32, "unit": "µg/mL"},
      {"measurement": "FaAST (MIC)", "setting": "E. coli Ec13", "result": 4, "unit": "µg/mL"}
    ]}
  ]
}
